In patent US8883841B2, “Oncogenic ras-specific cytotoxic compound and methods of use thereof” (The Board of Regents of the University of Texas System, priority 2005, dated 2014):
Where a name gives a salt, the structure may show the parent alone. Read-outs that look alike come from different tables or passages of the source.

Experiments:
T29Kt1 cells = assay: cells; conditions: Homo sapiens
T29 cells = assay: cells; conditions: Homo sapiens, T29, read-out: IC50 in T29 cells
H460 cells = assay: cells; conditions: Homo sapiens
Hct116 = assay: Cell viability, Hct116 colon cancer cells; assay type: cell-based, human; conditions: Homo sapiens, HCT-116; Hct116, Colon; read-out: IC50 (−LogM) (converted)
H1395 = assay: Cell viability, H1395 lung cancer cells; assay type: cell-based, human; conditions: Homo sapiens, NCI-H1395; H1395, Lung; read-out: IC50 (−LogM) (converted)
DLD1 = assay: Cell viability, DLD1 colon cancer cells; assay type: cell-based, human; conditions: Homo sapiens, DLD-1; DLD1, Colon; read-out: IC50 (−LogM) (converted)
HKE3 = assay: Cell viability, HKE3 colon cancer cells; assay type: cell-based, human; conditions: Homo sapiens, HKE3, Colon, read-out: IC50 (−LogM) (converted)
SKOV3 = assay: Cell viability, SKOV3 ovary cancer cells; assay type: cell-based; conditions: Homo sapiens, SK-OV-3
H23 = assay: Cell viability, H23 lung cancer cells; assay type: cell-based, human; conditions: Homo sapiens, NCI-H23; H23, Lung; read-out: IC50 (−LogM) (converted)
Ovcar443 = assay: Cell viability, Ovcar443 ovary cancer cells; assay type: cell-based
Heb46 = assay: Cell viability, Heb46 kidney cells; assay type: cell-based
Ovca429 = assay: Cell viability, Ovca429 ovary cancer cells; assay type: cell-based
H2122 = assay: Cell viability, H2122 lung cancer cells; assay type: cell-based, human; conditions: Homo sapiens, NCI-H2122; H2122, Lung; read-out: IC50 (−LogM) (converted)
Heb44 = assay: Cell viability, Heb44 kidney cells; assay type: cell-based
CT116P53 = assay: Cell viability, CT116P53 colon cancer cells; assay type: cell-based, human; conditions: Homo sapiens; CT116P53, Colon; read-out: IC50 (−LogM) (converted)
A549CK8 = assay: Cell viability, A549CK8 lung cancer cells; assay type: cell-based, human; conditions: Homo sapiens; A549CK8, Lung; read-out: IC50 (−LogM) (converted)
H2009 = assay: Cell viability, H2009 lung cancer cells; assay type: cell-based, human; conditions: Homo sapiens, NCI-H2009; H2009, Lung; read-out: IC50 (−LogM) (converted)
A549 cells = assay: Cell viability, A549 lung cancer cells; assay type: cell-based, human; conditions: Homo sapiens; A549, Lung; read-out: IC50 (−LogM) (converted)
Capanc-1 = assay: Cell viability, Capanc-1 pancreatic cancer cells; assay type: cell-based, human; conditions: Homo sapiens, Pancreatic cancer cell; capanc1, Pancrease; read-out: IC50 (−LogM) (converted)
H226B cells = assay: Cell viability, H226B lung cancer cells; assay type: cell-based, human; conditions: Homo sapiens, H226B, Lung, read-out: IC50 (−LogM) (converted)
H322 cells = assay: Cell viability, H322 lung cancer cells; assay type: cell-based, human; conditions: Homo sapiens, NCI-H322; H322, Lung; read-out: IC50 (−LogM) (converted)
Ovcar3 = assay: Cell viability, Ovcar3 ovary cancer cells; assay type: cell-based; conditions: Homo sapiens, OVCAR-3
miapac = assay: Cell viability, miapac pancreatic cancer cells; assay type: cell-based, human; conditions: Homo sapiens, Pancreatic cancer cell; miapac, Pancrease; read-out: IC50 (−LogM) (converted)
H1299 cells = assay: Cell viability, H1299 lung cancer cells; assay type: cell-based, human; conditions: Homo sapiens, NCI-H1299; h1299, Lung; read-out: IC50 (−LogM) (converted)
H1933 = assay: Cell viability, H1933 lung cancer cells; assay type: cell-based, human; conditions: Homo sapiens; H1933, Lung; read-out: IC50 (−LogM) (converted)
H2087 = assay: Cell viability, H2087 lung cancer cells; assay type: cell-based, human; conditions: Homo sapiens, NCI-H2087; H2087, Lung; read-out: IC50 (−LogM) (converted)
AsPC-1 = assay: Cell viability, AsPC-1 pancreatic cancer cells; assay type: cell-based, human; conditions: Homo sapiens; ASPC1, Pancrease; read-out: IC50 (−LogM) (converted)
Sw620 = assay: Cell viability, Sw620 colon cancer cells; assay type: cell-based, human; conditions: Homo sapiens, SW-620; Sw620, Colon; read-out: IC50 (−LogM) (converted)
Hey = assay: Cell viability, Hey ovary cancer cells; assay type: cell-based
[1] = T29Kt1, read-out: IC50 in T29k cells, Table 1
[2] = NCI-H460, read-out: IC50 in H460 cells, Table 1
[3] = NCI-H460, read-out: IC50 (−LogM), H460, Lung (converted)

| SMILES | IC50 (T29 cells) [µM] | IC50 (T29Kt1 cells; [1]) [µM] | IC50 (H460 cells; [2]) [µM] | IC50 (Hct116) [µM] | IC50 (H1395) [µM] | IC50 (DLD1) [µM] | IC50 (HKE3; first HKE3 line) [µM] | IC50 (HKE3; second HKE3 line) [µM] | IC50 (Heb46) [µM] | IC50 (H2122) [µM] | IC50 (Heb44) [µM] | IC50 (CT116P53) [µM] | IC50 (A549CK8) [µM] | IC50 (H2009) [µM] | IC50 (Capanc-1) [µM] | IC50 (H226B cells; first H226B line) [µM] | IC50 (H226B cells; second H226B line) [µM] | IC50 (Ovcar3) [µM] | IC50 (miapac) [µM] | IC50 (H1933) [µM] | also measured |
| --- | --- | --- | --- | --- | --- | --- | --- | --- | --- | --- | --- | --- | --- | --- | --- | --- | --- | --- | --- | --- | --- |
| COc1ccc2c(c1)c(CCN)c(C)n2Cc1ccccc1 [Oncrasin K005, [2-(1-benzyl-5-methoxy-2-methyl-1H-indol-3-yl)ethyl]amine hydrochloride] | 15.8 | – | – | – | – | – | – | – | – | – | – | – | – | – | – | – | – | – | – | – | IC50 (T29Kt1 cells; T29Kt1, read-out: IC50 in T29k cells): 15.8 µM; IC50 (H460 cells; NCI-H460, read-out: IC50 in H460 cells): 6.31 µM |
| COC(=O)c1c(C)n(Cc2cccc3ccccc23)c2ccc(O)cc12 [Oncrasin K011, methyl 5-hydroxy-2-methyl-1-(1-naphthylmethyl)-1H-indole-3-carboxylate] | 3.16 | 3.16 | 1.58 | – | – | – | – | – | – | – | – | – | – | – | – | – | – | – | – | – | – |
| CC(C)(C)OC(=O)C1=C(N)N(Cc2ccccc2)C2(C)C=CC(=O)C=C12 (stereo not shown) [Oncrasin K041, tert-butyl 2-amino-1-benzyl-7a-methyl-5-oxo-indole-3-carboxylate] | 5.01 | 5.01 | – | – | – | – | – | – | – | – | – | – | – | – | – | – | – | – | – | – | – |
| OCc1cn(Cc2ccc(Cl)c(Cl)c2)c2ccccc12 [Oncrasin K049, [1-(3,4-dichlorobenzyl)-1H-indol-3-yl]methanol] | – | 0.316 | 0.0316 | 0.01 | 15.8 | < 31.6 | 0.00251 | 0.00316 | 0.0316 | 0.316 | 0.01 | < 31.6 | 6.31 | 10 | 12.6 | 0.00251 | 0.00316 | 0.01 | < 31.6 | 100 | IC50 (SKOV3): 3.16 µM; IC50 (H23): 15.8 µM; IC50 (Ovcar443): 10 µM; IC50 (Ovca429): 7.94 µM; IC50 (A549 cells): 10 µM; IC50 (H322 cells): 10 µM; IC50 (H1299 cells): 10 µM; IC50 (H2087): 7.94 µM; IC50 (AsPC-1): 10 µM; IC50 (H460 cells; [3]): 0.0316 µM |
| Cc1ccc(Cn2cc(C=O)c3ccccc32)cc1 [Oncrasin K66, 1H-Indole-3-carboxaldehyde, 1-[(4-methylphenyl)methyl]-] | 31.6 | 3.98 | 0.0631 | – | – | – | – | – | – | – | – | – | – | – | – | – | – | – | – | – | – |
| O=[N+]([O-])c1cccc(Cn2cc(CO)c3ccccc32)c1 [Oncrasin K69, 1H-Indole-3-methanol, 1-[(3-nitrophenyl)methyl]-] | – | 0.398 | 0.0398 | 0.316 | < 31.6 | < 31.6 | 0.0794 | 1 | 0.316 | 2 | 0.0794 | < 31.6 | 1.26 | < 31.6 | 31.6 | 0.0316 | 0.1 | 0.251 | < 31.6 | < 31.6 | IC50 (Sw620): 31.6 µM; IC50 (SKOV3): 3.16 µM; IC50 (Ovca429): 31.6 µM; IC50 (Hey): < 31.6 µM; IC50 (H2087): 31.6 µM; IC50 (AsPC-1): 7.94 µM; IC50 (H460 cells; [3]): 0.0398 µM |
| O=[N+]([O-])c1ccc(Cn2cc(CO)c3ccccc32)cc1 [Oncrasin K71, 1H-Indole-3-methanol, 1-[(4-nitrophenyl)methyl]-] | – | 0.158 | 0.0794 | 3.16 | < 31.6 | < 31.6 | 0.398 | 0.2 | 3.98 | 3.16 | 0.158 | < 31.6 | 7.94 | < 31.6 | 0.126 | 0.316 | 1.58 | 2.51 | < 31.6 | 31.6 | IC50 (Sw620): 31.6 µM; IC50 (H23): 31.6 µM; IC50 (Hey): 31.6 µM; IC50 (H1299 cells): 10 µM; IC50 (AsPC-1): 10 µM; IC50 (H460 cells; [3]): 0.0794 µM |
| O=Cc1cn(Cc2cc(C(F)(F)F)cc(C(F)(F)F)c2)c2ccccc12 [Oncrasin K76] | 6.31 | 3.98 | 1.26 | – | – | – | – | – | – | – | – | – | – | – | – | – | – | – | – | – | – |
| OCn1cc(Cc2cc(C(F)(F)F)cc(C(F)(F)F)c2)c2ccccc21 [Oncrasin K77] | 6.31 | 7.94 | 7.94 | – | – | – | – | – | – | – | – | – | – | – | – | – | – | – | – | – | – |
